2 molecules from patent US20250320194A1, “PHARMACEUTICALLY ACCEPTABLE SALT AND CRYSTAL FORM OF FUSED PYRIDINE RING DERIVATIVE AND PREPARATION METHOD THEREFOR” (Jiangsu Hengrui Pharmaceuticals Co., Ltd., priority 2021, published 2025) can be followed below.

Each structure is given as a SMILES string. pEC50: −log10 of the molar value.

The target of one series is T1, HIV-1 capsid protein (Human immunodeficiency virus type 1 group M subtype B, UniProt P12493).
T1 construct: made in house
Kind of series: In vitro polymerization of HIV-1 capsid protein (HTRF, His-CA/GST-CA). Format: biochemical, HIV-1 NL4-3. The source says: • 1. MAb Anti GST-Eu cryptate (Cisbio) • 2. MAb Anti 6HIS-XL665 (Cisbio) • 3. His tag HIV-1 capsid protein (hereinafter referred to as His-CA) • 4. GST tag HIV-1 capsid protein (hereinafter referred to as GST-CA) • 5. 384-well unbound surface microplate, white (Corning) • 6. Microplate reader (BMG)
The HIV-1 capsid proteins aggregate spontaneously in high-salt solutions. Capsid protein derived from HIV-1 NL4-3 strains were separately tagged and expressed with 6His tag and GST tag, and purified. His-CA and GST-CA were mixed at high-salt concentrations, and the level of polymerization of capsid proteins was detected using GST antibody labeled with Eu3+-Cryptate (energy donor) and His antibody labeled with XL665 (energy acceptor). […]
His-CA was diluted to […] in a clean tube with protein diluent (50 mM Tris-HCl, pH 8.0, 50 mM NaCl, 0.4 mM MgCl2, 0.05% Triton X-100, 2% glycerol) while MAb Anti 6HIS-XL665 at a final concentration of 260 nM was added; GST-CA was diluted to 20 nM with protein diluent in another clean tube while MAb Anti GST-Eu cryptate at a final concentration of 3.33 nM was added and incubated on ice for half an hour. […] After incubation, the samples were excited with an excitation light at 337 nM, and signal values at 620 nM and 665 nM were collected for detection, wherein Ratio values=(665 nM/620 nM signal)*10000 was calculated according to the signal values. EC50 values for compounds were calculated using Graphpad Prism software based on each concentration of the compounds and the corresponding Ratio values.
(Time-resolved FRET reads energy transfer from a long-lived donor to a nearby acceptor.)

Series [1] in a line: Stability under influencing factors (high temperature, high humidity, open, 30 days).
Series [2] can be described thus: Hygroscopicity of salt crystal forms (DVS, 25° C.). Format: physicochemical. The method, then:
The test adopts SMS DVS Advantage, at 25° C., with a humidity range of 0 to 95% and a step of 10%. The judgment standard is that the dM/dT of each gradient mass change is less than 0.002%, TMAX is 360 minutes, and the cycle is two times. • 5. Cation chromatography • Instrument model: DIONEX AQUION ion chromatograph, USA • Detection method: conductivity; separation column: IonPac CS16-CG16 • Eluent: MSA 20Mm • Flow rate: 1.0 ml/min • 6. Anion chromatography • Instrument model: DIONEX INTEGRION HPIC ion chromatograph, USA • Detection method: conductivity; separation column: DionexIonPac™-AS11-HC • Eluent: EGC-500-KOH • Flow rate: 1.5 ml/min
Using Surface Measurement Systems advantage, at 25° C., the humidity starts from 50%, the humidity range is 0% to 95%, the step is 10%. The judgment standard was that the dM/dT of each gradient mass change is less than 0.002%, TMAX360 min, and the cycle was two times. The hygroscopicity of different salt crystal forms of the compound of formula I was investigated respectively.

A short description of series [3]: Long-term/accelerated stability.

The pEC50 is −log10 of the EC50, conventionally taken in molar units. Low values mean a high EC50, high ones a low EC50. Broadly, the Emax is the maximal effect, on the per cent scale that the assay sets. `CC(C)(C#Cc1nc([C@H](Cc2cc(F)cc(F)c2)NC(=O)Cn2nc(C(F)(F)F)c3c2C(F)(F)[C@@H]2C[C@H]32)c(-c2ccc(Cl)c3c(NS(C)(=O)=O)nn(CC(F)(F)F)c23)c2c1CCC2)S(C)(=O)=O` (atropisomer, axis not shown; (aR)) [The compound of formula (I), N—((S)-1-((R)-4-(4-chloro-3-(methanesulfonamide)-1-(2,2,2-trifluoroethyl)-1H-indazol-7-yl)-1-(3-methyl-3-(methylsulfonyl)but-1-yn-1-yl)-6,7-dihydro-5H-cyclopenta[c]pyridin-3-yl)-2-(3,5-difluorophenyl)ethyl)-2-((3bS,4aR)-5,5-difluoro-3-(trifluoromethyl)-3b,4,4a,5-tetrahydro-1H-cyclopropa[3,4]cyclopenta[1,2-c]pyrazol-1-yl)acetamide]: at HIV-1 capsid protein, the negative-log EC50 (pEC50) was 8.05 and the Emax was 100%. In addition, the “inhibition effect on the polymerization of HIV-1 capsid proteins” value on HIV-1 capsid protein (conclusion in words) is on record as “significant inhibition effect”.
Consider `CC(C)(C#Cc1nc(C(Cc2cc(F)cc(F)c2)NC(=O)Cn2nc(C(F)(F)F)c3c2C(F)(F)C2CC32)c(-c2ccc(Cl)c3c([N-]S(C)(=O)=O)nn(CC(F)(F)F)c23)c2c1CCC2)S(C)(=O)=O.[K+]` (centres unmarked) [Crystal form a of the potassium salt], for which the “physical and chemical stability (conclusion)” value is “good physical and chemical stability” in series [1] (40° C., 60° C., 75% RH and 92.5% RH); “good physical and chemical stability” in series [3] (long-term accelerated stability conditions for 6 months). In addition, the “Color, properties” value in series [1] (40° C., 5 days) was “White solid”; in series [1] (40° C., 10 days), “White solid”; in series [1] (40° C., 30 days), “White solid”; in series [1] (60° C., 5 days), “White solid”; in series [1] (60° C., 10 days), “White solid”; in series [1] (60° C., 30 days), “White solid”. Moreover, the “Color, properties” value in series [1] (75% RH, 5 days) is listed as “White solid”; in series [1] (75% RH, 10 days), “White solid”; in series [1] (75% RH, 30 days), “White solid”; in series [1] (92.5% RH, 5 days), “White solid”; in series [1] (92.5% RH, 10 days) it was “White solid”; in series [1] (92.5% RH, 30 days), “White solid”. For the same molecule, the “Color, properties” value in series [1] (Start, 0 days) is recorded as “White solid”. Further, the Crystal form result is listed as “Unchanged” in series [1] (40° C., 5 days); “Unchanged” in series [1] (40° C., 10 days); “Unchanged” in series [1] (40° C., 30 days); “Unchanged” in series [1] (60° C., 5 days); “Unchanged” in series [1] (60° C., 10 days); “Unchanged” in series [1] (60° C., 30 days). In addition, the Crystal form entry was “Unchanged” in series [1] (75% RH, 5 days); “Unchanged” in series [1] (75% RH, 10 days); “Unchanged” in series [1] (75% RH, 30 days); “Unchanged” in series [1] (92.5% RH, 5 days); “Unchanged” in series [1] (92.5% RH, 10 days); “Unchanged” in series [1] (92.5% RH, 30 days). Besides, the Crystal form result in series [2] (after DVS) is “Unchanged”; in series [3] (40° C., 75% RH) it was “Deliquesce”. Moreover, the Purity % in series [1] (40° C., 5 days) turned out to be 97.97%; in series [1] (40° C., 10 days), 98.04%; in series [1] (40° C., 30 days), 97.96%; in series [1] (60° C., 5 days), 98.01%; in series [1] (60° C., 10 days), 98.01%; in series [1] (60° C., 30 days), 97.82%. In addition, the Purity % stood at 97.96% in series [1] (75% RH, 5 days); 98.04% in series [1] (75% RH, 10 days); 98.02% in series [1] (75% RH, 30 days); 97.96% in series [1] (92.5% RH, 5 days); 98.04% in series [1] (92.5% RH, 10 days); 98.02% in series [1] (92.5% RH, 30 days). In series [1] (Start, 0 days), this molecule came in with a Purity % of 98.03%. Also, the “Hygroscopicity 0.0% RH-95.0% RH” value in series [2] (DVS, 25° C., 0.0% RH-95.0% RH) came to 8.77%. Further, the “Hygroscopicity 20.0% RH-80.0% RH” value in series [2] (DVS, 25° C., 20.0% RH-80.0% RH) came to 2.86%.
